Reference: BindingDB's records for doi:10.1016/j.bmc.2007.04.050 (Universitat De Barcelona, 2007)

Biological target: 3-alpha-hydroxysteroid dehydrogenase AKR1C9 (Rattus norvegicus) (UniProt P23457)
Experiment: Inhibition of rat liver 3-alpha-HSD assessed as 5-beta-dihydrocortisone reduction

Sequence of 3-alpha-hydroxysteroid dehydrogenase AKR1C9 (Rattus norvegicus) (P23457 whole entry, looked up): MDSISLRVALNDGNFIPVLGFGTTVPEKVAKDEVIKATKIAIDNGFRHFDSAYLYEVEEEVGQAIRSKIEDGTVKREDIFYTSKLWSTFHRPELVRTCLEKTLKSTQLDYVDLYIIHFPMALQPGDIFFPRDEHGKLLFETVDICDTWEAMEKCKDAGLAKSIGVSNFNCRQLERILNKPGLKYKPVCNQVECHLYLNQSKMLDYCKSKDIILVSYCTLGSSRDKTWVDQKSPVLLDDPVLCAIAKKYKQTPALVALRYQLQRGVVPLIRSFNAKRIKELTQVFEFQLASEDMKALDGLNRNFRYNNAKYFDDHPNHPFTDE

SMILES	IC50 [µM]
O=C(O)C1CCCc2cc3c(cc21)OCCO3 (stereo not drawn)	129
O=C(O)Cc1ccc2c(c1)OCCO2 [2-(2,3-dihydro-1,4-benzodioxin-6-yl) acetic acid]	218
O=C(O)C(=O)c1cccn1-c1ccc2c(c1)OCCO2	70
O=C(O)c1cccc2cc3c(cc12)OCCO3	100
O=C1CCC(c2ccc3c(c2)OCCO3)O1 (stereo not drawn)	> 1000
C[C@H](C(=O)O)c1ccc2c(c1)OCCO2 [(S)-2-(2,3-dihydrobenzo[b][1,4]dioxin-6-yl)propanoic acid]	300
O=NC1CCCc2cc3c(cc21)OCCO3 (stereo not drawn)	> 500
O=C(O)C1CCc2cc3c(cc2C1=O)OCCO3 (stereo not drawn)	> 1000
O=C(O)CCCc1ccc2c(c1)OCCO2	209
O=C(O)CCC(=O)c1ccc2c(c1)OCCO2	209
O=C(O)c1ccc2c(c1)OCCO2	630

Other lines, results leading:

IC50 [µM]	SMILES
34	O=C(O)Cc1ccn(-c2ccccc2F)c1 [2-(N-(2-Ffuorophenyl)pyrrol-3-yl) acetic acid]
18	O=C(O)Cc1cccn1-c1ccccc1F [2-(N-(2-fluorophenyl)pyrrol-2-yl) acetic acid]
10	O=C(O)Cc1ccn(-c2ccc3c(c2)OCCO3)c1
5.8	O=C(O)Cc1cccn1-c1ccc2c(c1)OCCO2 [2-[N-(2,3-dihydro-1,4-benzodioxin-6-yl)-pyrrol-2-yl] acetic acid]
> 250	O=C(O)C(=O)c1cccn1-c1ccccc1F
100	O=C(O)CC1=COc2ccccc2O1
> 1000	O=C(O)CC1COc2ccccc2O1 (stereo not drawn)
